Counter-ions that a name gives are not always drawn.
Tests used:
[1] = Comparative stability of crystalline and amorphous salts of compound I, stored at 60° C., HPLC; format: physicochemical
Source text: In the following TABLE 4 comparative stability data of the corresponding crystalline and amorphous salts of compound I are shown. [table]

[2] = Solubility of crystalline salts in water, aqueous vehicles and biorelevant media; format: physicochemical; conditions: 0.9% NaCl solution, FaSSIF and FeSSIF
[3] = system: Staphylococcus aureus ATCC49951; experiment: Minimum inhibitory concentration (MIC) in accordance with CLSI recommendations; format: cell-based
Protocol: (§1) The antimicrobial, e.g. antibacterial activity of 14-O-{[(4-amino-2-hydroxy-cyclohexyl)-sulfanyl]-acetyl}-mutilins was outlined in WO2008/113089. […] The minimum inhibitory concentration (MIC) was determined in accordance with CLSI recommendations.

[4] = system: Streptococcus pneumoniae ATCC49619; experiment: as above; format: cell-based
Protocol: as §1

[5] = 28 d at 60° C., * sample did not fully dissolve in water, suspension analyzed

Row | SMILES | Area % of 14-O-{[(1R,2R,4R)-4-amino-2-hydroxy-cyclohexylsulfanyl]-acetyl}-mutilin (compound I) by HPLC stored at 60° C. [1, 5] | Area % of 14-O-{[(1R,2R,4R)-4-amino-2-hydroxy-cyclohexylsulfanyl]-acetyl}-mutilin (compound I) by HPLC stored at 60° C. ([1]; Initial) | solubility [2] | MIC [3] | MIC [4]
1 | C=C[C@]1(C)C[C@@H](OC(=O)CS[C@@H]2CC[C@@H](N)C[C@H]2O)[C@]2(C)C(C)CC[C@]3(CCC(=O)[C@H]32)[C@@H](C)[C@@H]1O (stereo partly drawn) [Acetate (Form B) crystalline, 14-O-{[(1R,2R,4R)-4-Amino-2-hydroxy-cyclohexyl-sulfanyl]-acetyl}-mutilin acetate, crystalline Form B] | 98.9 Area % | 99.5 Area % |  |  | 
2 | C=C[C@]1(C)C[C@@H](OC(=O)CS[C@@H]2CC[C@@H](N)C[C@H]2O)[C@]2(C)C(C)CC[C@]3(CCC(=O)[C@H]32)[C@@H](C)[C@@H]1O (stereo partly drawn) [Hydrogen maleate crystalline, 14-O-{[(1R,2R,4R)-4-Amino-2-hydroxy-cyclohexylsulfanyl]-acetyl}-mutilin hydrogenmaleate, crystalline Form 1] |  |  | surprisingly high |  | 
3 | C=C[C@]1(C)C[C@@H](OC(=O)CS[C@@H]2CC[C@@H](N)C[C@H]2O)[C@]2(C)C(C)CC[C@]3(CCC(=O)[C@H]32)[C@@H](C)[C@@H]1O (stereo partly drawn) [L-Lactate crystalline, 14-O-{[(1R,2R,4R)-4-Amino-2-hydroxy-cyclohexylsulfanyl]-acetyl}-mutilin L-lactate, crystalline Form 1] | 98.3 Area % | 99.4 Area % | surprisingly high |  | 
4 | C=C[C@]1(C)C[C@@H](OC(=O)CS[C@@H]2CC[C@@H](N)C[C@H]2O)[C@]2(C)C(C)CC[C@]3(CCC(=O)[C@H]32)[C@@H](C)[C@@H]1O (stereo partly drawn) [compound of formula I, 14-O-{[(1R,2R,4R)-4-amino-2-hydroxy-cyclohexylsulfanyl]-acetyl}-mutilin] |  |  |  | < 0.4 µg/mL | < 0.4 µg/mL

From patent US9120727B2, “Process for the preparation of pleuromutilins” (NABRIVA THERAPEUTICS AG, priority 2010, dated 2015)
